The record followed here is the METLIN SMRT retention time set (Domingo-Almenara et al. 2019).

The nature of the data set: gradient 5% acetonitrile 3 min, to 50% in 2 min, to 85% in 15 min, held 3 min, 100 µL/min. Particulars: column: Zorbax Extend-C18 2.1 x 50 mm; eluents: water / acetonitrile, 0.1% formic acid. An outline of the steps:
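In both positive and negative ionization mode, a quadrupole time-of-flight mass spectrometer coupled to HPLC analyzed pure standards run in mixtures of ~100 molecules. The Zorbax Extend-C18 column (2.1 × 50 mm, 1.8 μm) was operated at 100 μL/min with water and acetonitrile, each containing 0.1% formic acid. The dead volume was 40 μL and the dwell volume 900 μL. Retention time came from adduct peaks that were computationally picked and individually inspected by hand.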
Consider `Cc1ccc(NC(=O)C2CCCN(c3ccc(=O)n(-c4cccc(Cl)c4)n3)C2)c(C)c1` (stereo unspecified), for which the RP-LC retention time was determined as 964 s.

In the case of `Cc1cccc(N2C(=O)CN(CCC(C)C)[C@H]3CS(=O)(=O)C[C@H]32)c1`, the RP-LC retention time was 811 s.

The compound `O=C(NC1(c2nc(-c3ccncc3)no2)CCCCC1)c1ccccc1` had an RP-LC retention time of 863 s.

`CCCc1nnc(C(=O)Nc2cccc(C(=O)NCCc3c[nH]c4ccc(Cl)cc34)c2)s1` showed an RP-LC retention time of 981 s.

On to `Cc1cccc(Nc2nc(C(=O)NCCc3ccco3)nc3ccccc23)c1`, for which the RP-LC retention time stood at 808 s.

With `O=C(C1CCN(c2cc(N3CCCCC3)ncn2)CC1)N1CCCCCC1`, the RP-LC retention time was 661 s.

`CC(C)(NC(=O)C1CCC1)c1nc2c(c(C(N)=O)n1)OCCO2` came in with an RP-LC retention time of 586 s.

Compound `Cn1c(N2CCC(C(=O)N3CCN(c4ccc(F)cc4)CC3)CC2)cc(=O)n(C)c1=O` registered an RP-LC retention time of 704 s.

`COc1ccccc1-c1noc(C2CCCN2C(=O)CSc2ccncc2)n1` (stereo unspecified) returned an RP-LC retention time of 611 s.

In the case of `CC(C)c1nc(NCc2ccc(F)cc2F)ncc1C(=O)O`, the RP-LC retention time is 875 s.

In the case of `Fc1ccc(CN(C2=NCCN2)c2c(Cl)cccc2Cl)cc1`, the RP-LC retention time came out at 760 s.

With `COc1cccc(COC(=O)C2=CN(Cc3ccccc3)S(=O)(=O)N=C2C)c1`, the RP-LC retention time amounted to 1090 s.

For the compound `CCC1Oc2ccc(S(=O)(=O)N3CCC(C(=O)Nc4ccccc4)CC3)cc2NC1=O` (stereo unspecified), the RP-LC retention time stood at 794 s.

Consider `CNC(=O)N1CCCC(c2cccc(C(=O)NCc3ccc(OC(C)C)cc3)c2)C1` (stereo unspecified), for which the RP-LC retention time was 835 s.

`Cc1sc(C)c(S(=O)(=O)N2CCCC2)c1-c1cc(C(F)(F)F)on1` showed an RP-LC retention time of 1130 s.

In turn, `CCC(=O)NCCc1csc(C2CCCN(C(=O)C(C)(C)C)C2)n1` (stereo unspecified) yielded an RP-LC retention time of 685 s.

`COC(=O)c1ccc2c(=O)n(-c3ccc(F)c(Cl)c3)c(N3CCOCC3)nc2c1`: the RP-LC retention time amounted to 967 s.

The compound `COC(=O)C1=C(CN2CCSCC2)NC(=O)NC1c1ccccc1Cl` (stereo unspecified) returned an RP-LC retention time of 621 s.

`COC1CN(c2cccc(F)c2)C12CCN(C(=O)C1(c3ccccc3)CC1)CC2` (stereo unspecified) had an RP-LC retention time of 1120 s.

In turn, `Cc1ccc(-c2nnc(Cc3nc(-c4cccc(F)c4)no3)o2)cc1F` returned an RP-LC retention time of 1110 s.

For the compound `Cc1ccc(F)c2c(=O)c3c([nH]c12)CCN(CC(=O)NC1CCCC1)C3`, the RP-LC retention time turned out to be 669 s.

`Cn1cnc2c1CN(C(=O)c1ccc(Br)o1)CC2` showed an RP-LC retention time of 563 s.

For `COc1cccc(S(=O)(=O)N2CCOCCNC(=O)[C@@H]3CCC[C@@H]32)c1`, the RP-LC retention time was 740 s.

`COc1ccc(-c2csc(Cc3nc(-c4ccccc4Cl)no3)n2)cc1`: the RP-LC retention time was 1160 s.

In the case of `Cc1ccc(Cn2nc3ccc(S(=O)(=O)N4CCCCCC4)cn3c2=O)cc1C`, the RP-LC retention time amounted to 1070 s.

The compound `CN(CC(=O)Nc1c2c(nc3c1CCC3)CCCC2)Cc1ccccc1` registered an RP-LC retention time of 562 s.

For the compound `Cc1ccccc1-c1nc(C)c(C(=O)NC(C)C)s1`, the RP-LC retention time worked out at 903 s.

For `Cc1cc(S(=O)(=O)N2CCC(n3c(-c4ccco4)nc4cccnc43)C2)ccc1F` (stereo unspecified), the RP-LC retention time came out at 827 s.

In turn, `O=C1CCc2cc(S(=O)(=O)NCCCc3ccccc3)cc3c2N1CCC3` had an RP-LC retention time of 879 s.

With `O=C(CCc1ccccc1)N1CCc2cc(-c3ccno3)ccc21`, the RP-LC retention time is 1020 s.

Regarding `Cc1nccn1C1CN(C(=O)C(C)Oc2ccccc2)C1` (stereo unspecified), the RP-LC retention time was 599 s.

As for `Cc1csc(NC(=O)CSc2nnc(NC(=O)c3cc(C)on3)s2)n1`, the RP-LC retention time stood at 692 s.

`COCCN1C(=O)[C@H]2CN(Cc3cc(OC)ccc3OC)C[C@H]2C1=O` came in with an RP-LC retention time of 595 s.

Take `C=CCN1CCN(c2ccc3nnc(CCc4nc(-c5ccccc5OC)no4)n3n2)CC1`: the RP-LC retention time was found to be 573 s.

`C=CCNC(=O)c1ccc2[nH]c(C)c(C)c2c1`: the RP-LC retention time was 568 s.

The compound `CCN1C(=O)c2ccccc2Oc2ccc(C(=O)NCc3ccc(C)o3)cc21` registered an RP-LC retention time of 910 s.

As to `CCN1C(=O)C2(CCN(S(=O)(=O)c3cccs3)CC2)c2ccccc21`, the RP-LC retention time was 983 s.

As to `CN(C)c1ccc(CNC(=O)Cc2c[nH]c3ncccc23)cc1`, the RP-LC retention time is 640 s.

`COCCCNS(=O)(=O)c1ccccc1-c1nc(-c2ccc(F)cc2)no1` displayed an RP-LC retention time of 905 s.

The compound `O=C(CN1CCN(Cc2ccccc2)C1=O)N1CCN(C2CCCCC2)CC1` registered an RP-LC retention time of 601 s.

Regarding `Cc1cc(C(=O)N(CC2CCCO2)c2nc3c(F)cc(F)cc3s2)on1` (stereo unspecified), the RP-LC retention time was found to be 1080 s.

In the case of `COc1ccc(-c2nc(NCCCN3CCCC(C)C3)c3ccccc3n2)cc1` (stereo unspecified), the RP-LC retention time came out at 572 s.

The compound `Cc1ccc(-n2c(N3CCCC(C(=O)NCCC4=CCCCC4)C3)nc3ccsc3c2=O)cc1` (stereo unspecified) showed an RP-LC retention time of 1060 s.

`CCOC(=O)c1c(C)oc2nc(C)nc(NCCCN3CCN(c4cccc(C)c4)C(C)C3)c12` (stereo unspecified): the RP-LC retention time is 778 s.

Take `C=CCN1C(=O)COc2ccc(-c3csc(NC(=O)COC)n3)cc21`: the RP-LC retention time is 785 s.

For the compound `CC1CCN(CCNC(=O)c2nnc(-c3ccc(S(=O)(=O)N4CCOCC4)cc3)o2)CC1`, the RP-LC retention time was 629 s.

Regarding `CCC(=O)NCC12CCCC=C1N(C)C(=O)CC2` (stereo unspecified), the RP-LC retention time was found to be 648 s.

`O=C(Cc1ccsc1)NCc1cnoc1-c1ccc(F)cc1` had an RP-LC retention time of 844 s.

`COc1cc(O)ccc1-c1nc2cccc(C)n2c1Nc1ccccc1C` gave an RP-LC retention time of 667 s.

As for `Cn1c(N2CCCC(C(=O)NCCN3CCN(c4ccccc4F)CC3)C2)cc(=O)n(C)c1=O` (stereo unspecified), the RP-LC retention time turned out to be 591 s.

`COc1cccc(C(=O)N2CCC3(CC2)NC(=O)c2cccc(Cl)c2N3)c1` yielded an RP-LC retention time of 749 s.

`O=C(NCc1ccccc1Cl)C(=O)NCC1CCN(C(=O)Oc2ccccc2)CC1` yielded an RP-LC retention time of 893 s.

As to `Fc1ccc(Cc2nc3nccc(-c4cc5ccccc5o4)n3n2)cc1`, the RP-LC retention time came out at 1130 s.

Turning to `CCOC(=O)CCC(=O)Nc1nnc(-c2cc(C)oc2C)o1`, the RP-LC retention time came out at 683 s.

Compound `CCn1c(=O)c(N2CCCC(C(=O)NCCc3c[nH]c4ccc(C)cc34)C2)nc2ccccc21` (stereo unspecified) gave an RP-LC retention time of 1030 s.

`CC1(C(=O)NCc2ccc(F)cc2)CCCN(C(=O)Nc2ccccc2C(F)(F)F)C1` (stereo unspecified) showed an RP-LC retention time of 949 s.

Turning to `CN(C)CCN(Cc1ccco1)C(=O)Cn1nc(Cc2ccncc2)c2ccccc2c1=O`, the RP-LC retention time is 548 s.

As to `Cc1ccccc1-c1nc(-c2ccc(S(=O)(=O)N3CCCC3)cc2)no1`, the RP-LC retention time was 1240 s.

`Cc1c2cnccc2c(C)c2c1c1ccccc1n2CCOC(=O)c1ccccc1` showed an RP-LC retention time of 751 s.

In turn, `Cc1ccc(CN2N=C(C(=O)N3CCOCC3)S(=O)(=O)c3ccc(C)cc32)cc1` had an RP-LC retention time of 907 s.

Compound `Cc1ccc(S(=O)(=O)N2CCC(C(=O)NCc3cscn3)CC2)cc1C` displayed an RP-LC retention time of 748 s.

`CCOc1cc(=O)n2c(c1C(=O)Nc1cc(OC)c(Cl)cc1OC)CCCC2` came in with an RP-LC retention time of 763 s.

`Cc1cc(C)n(C(=O)c2cn(-c3ccc(S(=O)(=O)N4CCCC(C)C4)cn3)cn2)n1` (stereo unspecified): the RP-LC retention time was 1020 s.

Regarding `CCc1c(C(=O)O)nnn1-c1ccccc1F`, the RP-LC retention time is 690 s.

`O=C(C1CCN(c2nnc(-c3ccccc3)o2)CC1)N1CCN(c2ccccn2)CC1`: the RP-LC retention time was found to be 602 s.

The compound `CCN(CC)S(=O)(=O)c1ccc2c(c1)CC(C(=O)N1CCN(C3CCCCC3)CC1)N2C(C)=O` (stereo unspecified) registered an RP-LC retention time of 666 s.

Turning to `O=C(Cc1csc2nc(-c3ccccc3)cn12)NCc1ccccc1Cl`, the RP-LC retention time is 832 s.

`O=C(c1nnc(-c2ccc(S(=O)(=O)N3CCCCC3)cc2)o1)N1CCN(c2ccccc2F)CC1` gave an RP-LC retention time of 1130 s.

With `Cc1cc(F)ccc1NC(=O)c1cn2c(n1)CCCC2`, the RP-LC retention time turned out to be 600 s.

As for `CCOC(=O)CSc1nnc(-c2nnc(SCC(=O)OCC)n2CC)n1CC`, the RP-LC retention time amounted to 758 s.

Consider `CS(=O)(=O)N1CCC(C(=O)N2CC3CC(C2)c2cccc(=O)n2C3)CC1` (stereo unspecified), for which the RP-LC retention time came out at 528 s.

In the case of `Cc1cc(C)cc(C(=O)N2CCCC(C(=O)NCc3ccco3)C2)c1` (stereo unspecified), the RP-LC retention time was 798 s.

In the case of `Cc1ccn2cc(C(=O)NCc3ccccc3F)nc2c1`, the RP-LC retention time stood at 628 s.

Compound `Cc1c(C(=O)C(=O)Nc2ccccc2C(N)=O)c2ccccc2n1C` registered an RP-LC retention time of 796 s.

Compound `Cc1cc(C(=O)NCCCN2CCN(c3cc(Cl)ccc3C)CC2)n(-c2ccccc2)n1` came in with an RP-LC retention time of 726 s.

`COc1cccc(CNC(=O)CN2CCc3[nH]c4c(C)c(Cl)ccc4c(=O)c3C2)c1` came in with an RP-LC retention time of 636 s.

Compound `Cc1ccc(CNC(=O)CN2C(=O)C3CCCN3C(=O)c3cccc(C)c32)cc1` (stereo unspecified) had an RP-LC retention time of 736 s.

`O=C(Nc1ccc(Cl)cn1)C(=O)c1cccn1Cc1ccccc1` gave an RP-LC retention time of 1180 s.

In turn, `CCN(CCN(C)C)c1ccc(C(=O)O)cc1NS(=O)(=O)c1ccccc1Cl` registered an RP-LC retention time of 582 s.

Consider `CN1CCN(CC2(O)CCC3(CCN(C(=O)c4ccoc4)CC3)CC2)CC1`, for which the RP-LC retention time is 551 s.

For the compound `Cc1nnc2ccc(-c3noc(-c4ccccc4Br)n3)cn12`, the RP-LC retention time came out at 908 s.
